Test results reported in US9505753B2, “Inhibitors of D-amino acid oxidase” (THE JOHNS HOPKINS UNIVERSITY, priority 2012, dated 2016).

What follows are compounds tested against human recombinant D-amino acid oxidase (Homo sapiens (Human), UniProt P14920) (assay: In vitro D-amino acid oxidase (DAAO) assay, 96-well plate). Settings: human recombinant DAAO; D-serine 5 mM, FAD 1 μM, 20 min, room temperature, Tris buffer pH 8.5; read-out: Inhibition of DAAO IC50.
Format: biochemical
Description: A reliable 96-well plate D-amino acid oxidase (DAAO) assay was developed based on previously published reports (J. Biol. Chem. 277: 27782 (2002)). […] All reactions were carried out for 20 min at room temperature in a 100-μL volume in Tris buffer (50 mM, pH 8.5). Additionally, stock solutions and serial dilutions of potential DAO inhibitors were made in 10:90 DMSO:buffer with a final assay DMSO concentration of 1%.

Chain of human recombinant D-amino acid oxidase (P14920 whole entry): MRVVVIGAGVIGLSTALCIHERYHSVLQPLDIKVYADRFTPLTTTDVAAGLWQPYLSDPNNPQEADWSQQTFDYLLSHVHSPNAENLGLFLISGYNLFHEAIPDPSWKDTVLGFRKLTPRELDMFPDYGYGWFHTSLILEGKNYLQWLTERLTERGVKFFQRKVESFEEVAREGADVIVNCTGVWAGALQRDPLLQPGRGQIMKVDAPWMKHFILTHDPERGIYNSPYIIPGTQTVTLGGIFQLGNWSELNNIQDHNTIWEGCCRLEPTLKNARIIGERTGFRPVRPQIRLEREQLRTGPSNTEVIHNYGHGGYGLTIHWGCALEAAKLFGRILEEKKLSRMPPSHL

Row | Structure (SMILES) | IC50 [µM]
1 | Cn1nc(O)c(=O)[nH]c1=O [Compound 5p, 6-Hydroxy-2-methyl-1,2,4-triazine-3,5(2H,4H)-dione] | 3
2 | CC(C)CCn1nc(O)c(=O)[nH]c1=O [Compound 5q, 6-Hydroxy-2-isopentyl-1,2,4-triazine-3,5(2H,4H)-dione] | 0.3
3 | CC(C)(C)CCn1nc(O)c(=O)[nH]c1=O [Compound 5r, 2-(3,3-Dimethylbutyl)-6-hydroxy-1,2,4-triazine-3,5(2H,4H)-dione] | 40
4 | O=c1[nH]c(=O)n(CCCc2ccccc2)nc1O [Compound 5s, 6-Hydroxy-2-(3-phenylpropyl)-1,2,4-triazine-3,5(2H,4H)-dione] | 2
5 | O=c1[nH]c(=O)n(Cc2ccccc2)nc1O [Compound 5t, 2-Benzyl-6-hydroxy-1,2,4-triazine-3,5(2H,4H)-dione] | 9
6 | O=c1[nH]c(=O)n(Cc2cccc3ccccc23)nc1O [Compound 5u, 6-Hydroxy-2-(naphthalen-1-ylmethyl)-1,2,4-triazine-3,5(2H,4H)-dione] | 0.05
7 | COc1ccccc1CCn1nc(O)c(=O)[nH]c1=O [Compound 5v, 6-Hydroxy-2-(2-methoxyphenethyl)-1,2,4-triazine-3,5(2H,4H)-dione] | 0.2
8 | O=c1[nH]c(=O)n(CCc2ccccc2O)nc1O [Compound 5vp, 6-Hydroxy-2-(2-hydroxyphenethyl)-1,2,4-triazine-3,5(2H,4H)-dione] | 0.06
9 | COc1cccc(CCn2nc(O)c(=O)[nH]c2=O)c1 [Compound 5w, 6-Hydroxy-2-(3-methoxyphenethyl)-1,2,4-triazine-3,5(2H,4H)-dione] | 0.1
10 | O=c1[nH]c(=O)n(CCc2cccc(O)c2)nc1O [Compound 5wp, 6-Hydroxy-2-(3-hydroxyphenethyl)-1,2,4-triazine-3,5(2H,4H)-dione] | 0.1
11 | O=c1[nH]c(=O)n(CCc2ccc(O)cc2)nc1O [Compound 5xp, 6-Hydroxy-2-(4-hydroxyphenethyl)-1,2,4-triazine-3,5(2H,4H)-dione] | 0.1
12 | O=c1[nH]c(=O)n(CCc2ccc(Cl)c(Cl)c2)nc1O [Compound 5y, 2-(3,4-Dichlorophenethyl)-6-hydroxy-1,2,4-triazine-3,5(2H,4H)-dione] | 0.03
13 | O=c1[nH]c(=O)n(CCc2ccc(F)c(Cl)c2)nc1O [Compound 5z, 2-(3-Chloro-4-fluorophenethyl)-6-hydroxy-1,2,4-triazine-3,5(2H,4H)-dione] | 0.06
14 | O=c1[nH]c(=O)n(CC(F)(F)c2ccccc2)nc1O [Compound 10a, 2-(2,2-Difluoro-2-phenylethyl)-6-hydroxy-1,2,4-triazine-3,5(2H,4H)-dione] | 0.4
15 | O=c1[nH]c(=O)n(CCc2ccc(F)c(F)c2)nc1O [Compound 10b, 2-(3,4-Difluorophenethyl)-6-hydroxy-1,2,4-triazine-3,5(2H,4H)-dione] | 0.04
16 | O=c1[nH]c(=O)n(CCn2cccc2)nc1O [Compound 10c, 2-(2-(1H-pyrrol-1-yl)ethyl)-6-hydroxy-1,2,4-triazine-3,5(2H,4H)-dione] | 0.1
17 | O=c1[nH]c(=O)n(CCn2cccn2)nc1O [Compound 10d, 2-(2-(1H-pyrazol-1-yl)ethyl)-6-hydroxy-1,2,4-triazine-3,5(2H,4H)-dione] | 0.3
18 | O=c1[nH]c(=O)n(CCn2ccc3ccccc32)nc1O [Compound 10e, 2-(2-(1H-indol-1-yl)ethyl)-6-hydroxy-1,2,4-triazine-3,5(2H,4H)-dione] | 0.1

Row | Structure (SMILES) | IC50 [µM]
19 | O=c1[nH]c(=O)n(CCn2cnc3ccccc32)nc1O [Compound 10f, 2-(2-(1H-benzo[d]imidazol-1-yl)ethyl)-6-hydroxy-1,2,4-triazine-3,5(2H,4H)-dione] | 0.3
20 | O=c1[nH]c(=O)n(CCn2ccc3cccnc32)nc1O [Compound 10g, 2-(2-(1H-pyrrolo[2,3-b]pyridin-1-yl)ethyl)-6-hydroxy-1,2,4-triazine-3,5(2H,4H)-dione] | 0.3
21 | O=c1[nH]c(=O)n(CCn2ncc3ccccc32)nc1O [Compound 10h, 2-(2-(1H-indazol-1-yl)ethyl)-6-hydroxy-1,2,4-triazine-3,5(2H,4H)-dione] | 0.2
22 | O=c1[nH]c(=O)n(CCn2c3ccccc3c3ccccc32)nc1O [Compound 10i, 2-(2-(9H-carbazol-9-yl)ethyl)-6-hydroxy-1,2,4-triazine-3,5(2H,4H)-dione] | 7
23 | O=c1[nH]c(=O)n(CCN2CCOCC2)nc1O [Compound 10j, 6-Hydroxy-2-(2-morpholinoethyl)-1,2,4-triazine-3,5(2H,4H)-dione] | 1
24 | CC(Cc1ccccc1)n1nc(O)c(=O)[nH]c1=O (stereo not drawn) [Compound 10k, 6-Hydroxy-2-(1-phenylpropan-2-yl)-1,2,4-triazine-3,5(2H,4H)-dione] | 0.3
25 | O=c1[nH]c(=O)n(CCc2ccccn2)nc1O [Compound 10l, 6-Hydroxy-2-(2-(pyridin-2-yl)ethyl)-1,2,4-triazine-3,5(2H,4H)-dione] | 0.9
26 | O=c1[nH]c(=O)n(C[C@@H]2C[C@H]2c2ccccc2)nc1O [Compound 10n, 6-Hydroxy-2-(((1R,2R)-2-phenylcyclopropyl)methyl)-1,2,4-triazine-3,5(2H,4H)-dione] | 0.4
27 | O=c1[nH]c(=O)n(Cc2cccc3[nH]ccc23)nc1O [Compound 10o, 2-((1H-indol-4-yl)methyl)-6-hydroxy-1,2,4-triazine-3,5(2H,4H)-dione] | 0.2
28 | O=c1[nH]c(=O)n(Cc2cccc3cnccc23)nc1O [Compound 10p, 6-Hydroxy-2-(isoquinolin-5-ylmethyl)-1,2,4-triazine-3,5(2H,4H)-dione] | 0.3
29 | O=c1[nH]c(=O)n(Cc2cccc3ccsc23)nc1O [Compound 10q, 2-(Benzo[b]thiophen-7-ylmethyl)-6-hydroxy-1,2,4-triazine-3,5(2H,4H)-dione] | 2
30 | O=c1[nH]c(=O)n(CCc2cc(F)cc(F)c2)nc1O [Compound 10r, 2-(3,5-Difluorophenethyl)-6-hydroxy-1,2,4-triazine-3,5(2H,4H)-dione] | 0.2
31 | O=c1[nH]c(=O)n(Cc2cccc3c(F)cccc23)nc1O [Compound 10s, 2-((5-Fluoronaphthalen-1-yl)methyl)-6-hydroxy-1,2,4-triazine-3,5(2H,4H)-dione] | 0.08
32 | CN(C)CCn1nc(O)c(=O)[nH]c1=O [Compound 12a, 2-(2-(Dimethylamino)ethyl)-6-hydroxy-1,2,4-triazine-3,5(2H,4H)-dione] | 5
33 | CC(C)N1CCN(CCn2nc(O)c(=O)[nH]c2=O)CC1 [Compound 12b, 6-Hydroxy-2-(2-(4-isopropylpiperazin-1-yl)ethyl)-1,2,4-triazine-3,5(2H,4H)-dione] | 9
34 | O=c1[nH]c(=O)n(CCN2CCN(c3ccccc3F)CC2)nc1O [Compound 12c, 2-(2-(4-(2-Fluorophenyl)piperazin-1-yl)ethyl)-6-hydroxy-1,2,4-triazine-3,5(2H,4H)-dione] | 3
35 | O=c1[nH]c(=O)n(CCN2CCc3ccccc3C2)nc1O [Compound 12d, 2-(2-(3,4-Dihydroisoquinolin-2(1H)-yl)ethyl)-6-hydroxy-1,2,4-triazine-3,5(2H,4H)-dione] | 0.7

Same assay, conditions: read-out: Inhibition of DAAO IC50

Row | Structure (SMILES) | IC50 [µM]
36 | COc1ccc(CCn2nc(O)c(=O)[nH]c2=O)cc1 [Compound 5x, 6-Hydroxy-2-(4-methoxyphenethyl)-1,2,4-triazine-3,5(2H,4H)-dione] | 0.1
